Data published in US10660333B2, “Substituted 2-heterocyclylimidazolylcarboxamides as pesticides” (BAYER CROPSCIENCE AKTIENGESELLSCHAFT, priority 2016, dated 2020).
Like-named read-outs stand apart in the source and are kept apart here.

What was measured:
[1] = tested on: Meloidogyne incognita; assay: Meloidogyne incognita - test; type: in vivo; settings: 20 ppm, lettuce, after 14 days
Method: Meloidogyne incognita—Test
To produce a suitable active ingredient formulation, 1 part by weight of active ingredient is mixed with the stated amount of solvent and the concentrate is diluted to the desired concentration with water.
Vessels are filled with sand, active ingredient solution, an egg/larvae suspension of the southern root-knot nematode (Meloidogyne incognita) and lettuce seeds. The lettuce seeds germinate and the plants develop. The galls develop on the roots.
After 14 days, the nematicidal efficacy in % is determined by the formation of galls. 100% means that no galls were found; 0% means that the number of galls on the treated plants corresponds to the untreated control.

[2] = tested on: Myzus persicae; assay: Myzus persicae - oral test; type: in vivo; settings: for pest or weed control at 4 ppm: Myzus persicae, 120 h, read-out: efficacy (aphids killed)
Method: (§1) To produce a suitable active ingredient formulation, 1 part by weight of active ingredient is dissolved with the specified parts by weight of solvent and made up to the desired concentration with water.
(§2) 50 μl of the active ingredient formulation are transferred into microtitre plates and made up to a final volume of 200 μl with 150 μl of IPL41 insect medium (33%+15% sugar). Subsequently, the plates are sealed with parafilm, which a mixed population of green peach aphids (Myzus persicae) within a second microtitre plate is able to puncture and imbibe the solution.
(§3) After 5 days, the efficacy in % is determined. 100% means that all the aphids have been killed; 0% means that no aphids have been killed.

[3] = tested on: Myzus persicae; assay: Myzus persicae - spray test; type: in vivo; settings: for pest or weed control at 500 g/ha: Myzus persicae, foliar, 120 h, read-out: efficacy (aphids killed)
Method: Myzus persicae—Spray Test
(§4) To produce a suitable active ingredient formulation, 1 part by weight of active ingredient is dissolved with the specified parts by weight of solvent and made up to the desired concentration with water containing an emulsifier concentration of 1000 ppm. To produce further test concentrations, the formulation is diluted with emulsifier-containing water.
(§5) Discs of Chinese cabbage leaves (Brassica pekinensis) infested by all stages of the green peach aphid (Myzus persicae) are sprayed with an active ingredient formulation of the desired concentration.
as §3

[4] = log P by HPLC on reversed-phase (C18) columns, OECD Guideline 117; type: physicochemical; settings: for chromatographic logP: reversed-phase (C18) HPLC column
[5] = tested on: Boophilus microplus; assay: Boophilus microplus - injection test; type: in vivo; settings: 20 μg/animal, injection into engorged adult female cattle ticks, after 7 days
Method: Boophilus microplus—Injection Test
Solvent: Dimethyl Sulphoxide
To produce a suitable active ingredient formulation, 10 mg of active ingredient are mixed with 0.5 ml of solvent and the concentrate is diluted to the desired concentration with solvent.
1 μl of the active ingredient solution is injected into the abdomen of 5 engorged adult female cattle ticks (Boophilus microplus). The animals are transferred into dishes and kept in a climate-controlled room.
Efficacy is assessed after 7 days by laying of fertile eggs. Eggs which are not visibly fertile are stored in a climate-controlled cabinet until the larvae hatch after about 42 days. An efficacy of 100% means that none of the ticks has laid any fertile eggs; 0% means that all the eggs are fertile.

[6] = tested on: Aphis gossypii; assay: Aphis gossypii - spray test (APHIGO S), cotton plants; type: in vivo; settings: 144 h, 6 dat, read-out: % efficacy
Method: Aphis gossypii—Spray Test (APHIGO S)
as §4, with “water. If the addition of ammonium salts or/and penetrants is required, these are each added in a concentration of 1000 ppm to the formulation solution.” for “water.”
Cotton plants (Gossypium hirsutum) heavily infested by the cotton aphid (Aphis gossypii) are sprayed with an active ingredient formulation of the desired concentration.
After the desired time, the kill in % is determined. 100% means that all the aphids have been killed; 0% means that no aphids have been killed.

[7] = tested on: Myzus persicae; assay: Myzus persicae - oral test (MYZUPE O), comparison with prior art; type: in vivo; settings: Myzus persicae, po, 120 h, 5 dat, read-out: % efficacy
Method: Myzus persicae—Oral Test (MYZUPE O)
as §1, §2
(§6) After the desired period of time, the efficacy in % is determined. 100% means that all the aphids have been killed; 0% means that no aphids have been killed.

[8] = tested on: Myzus persicae; assay: Myzus persicae - spray test (MYZUPE S), bell pepper plants; type: in vivo; settings: Myzus persicae, 144 h, 6 dat, read-out: % efficacy
Method: Myzus persicae—Spray Test (MYZUPE S)
as §4, with “water. If the addition of ammonium salts or/and penetrants is required, these are each added in a concentration of 1000 ppm to the formulation solution.” for “water.”
Bell pepper plants (Capsicum annuum) severely infested with the green peach aphid (Myzus persicae) are treated by spraying with the active ingredient formulation in the desired concentration.
After the desired time, the kill in % is determined. 100% means that all the animals have been killed; 0% means that no animals have been killed.

[9] = tested on: Myzus persicae; assay: Myzus persicae - drench test (MYZUPE D), savoy cabbage; type: in vivo; settings: Myzus persicae, soil, 240 h, 10 dat, read-out: % efficacy
Method: Myzus persicae—Drench Test (MYZUPE D)
To produce a suitable active ingredient formulation, 1 part by weight of active ingredient is mixed with the specified amounts of solvent and emulsifier, and the concentrate is diluted with water to the desired concentration, it being necessary to include the volume of soil which is drenched in the calculation. It should be ensured that a concentration of 40 ppm of emulsifier in the soil is not exceeded. To produce further test concentrations, water is used for dilution.
Savoy cabbage (Brassica oleracea) in pots with soil and infested by all stages of the green peach aphid (Myzus persicae) is watered with an active ingredient formulation of the desired concentration.
as §6

[10] = tested on: Myzus persicae; assay: Myzus persicae - spray test (MYZUPE), comparison with prior art; type: in vivo; settings: Myzus persicae, 120 h, 5 dat, read-out: % efficacy; for Emax at 100 g/ha: 100 g/ha (g of ai/ha); for Emax at 20 g/ha: 20 g/ha (g of ai/ha)
Method: Myzus persicae—Spray Test (MYZUPE)
as §4, §5, §6

[11] = tested on: Tetranychus urticae; assay: Tetranychus urticae - spray test, OP-resistant; type: in vivo; settings: 500 g/ha, bean leaf discs, after 6 days
Method: Tetranychus urticae—Spray Test, OP-Resistant
as §4
Discs of bean leaves (Phaseolus vulgaris) infested with all stages of the greenhouse red spider mite (Tetranychus urticae) are sprayed with an active ingredient formulation of the desired concentration.
After 6 days, the efficacy in % is determined. 100% means that all the spider mites have been killed; 0% means that no spider mites have been killed.

[12] = HPLC RP C18, acidic range pH 2.7, 0.1% formic acid/acetonitrile, read-out: logP[a]
[13] = HPLC RP C18, neutral range pH 7.8, ammonium hydrogencarbonate/acetonitrile, read-out: logP[n]
[14] = 500 g/ha, Chinese cabbage leaf discs, after 5 days
[15] = HPLC RP C18, acidic range pH 2.7, 0.1% formic acid/acetonitrile
[16] = HPLC RP C18, neutral range pH 7.8, ammonium hydrogencarbonate/acetonitrile

Row | SMILES | chromatographic logP [4, 12] | chromatographic logP [4, 13] | pest or weed control at 4 ppm ([2]; 4 ppm, oral, after 5 days) [%] | efficacy (laying of fertile eggs) [5] [%] | pest or weed control at 500 g/ha [3, 14] [%] | Emax at 0.16 ppm [6] [%] | Emax at 0.8 ppm [6] [%] | Emax at 0.8 ppm [7] [%] | Emax at 4 ppm [7] [%] | Emax at 0.16 ppm [8] [%] | Emax at 0.8 ppm [8] [%] | Emax at 0.16 ppm [9] [%] | Emax at 0.8 ppm [9] [%] | Emax at 100 g/ha [10] [%] | Emax at 500 g/ha [10] [%] | efficacy (aphids killed) ([2]; 4 ppm, oral, after 5 days) [%] | efficacy (aphids killed) [3, 14] [%] | logP[a] [4, 15] | logP[n] [4, 16] | efficacy (spider mites killed) [11] [%] | also measured
1 | CN(C(=O)c1cnc(C2=NOCCO2)n1C)c1cccnc1 [Example I-1-29, 2-(5,6-Dihydro-1,4,2-dioxazin-3-yl)-N,1-dimethyl-N-(pyridin-3-yl)-1H-imidazole-5-carboxamide] | 0.45 | 0.76 | – | – | – | – | – | – | – | – | – | – | – | – | – | – | – | – | – | – | nematicidal efficacy (formation of galls) [1]: 100%; pest or weed control at 4 ppm ([2]; po): 100%; pest or weed control at 500 g/ha ([3]; in Brassica rapa): 100%
2 | CN(C(=O)c1cnc(C2CC(c3cccc(C#N)c3)=NO2)n1C)c1cccnc1 (centres unmarked) [Example I-1-19, 2-[3-(3-Cyanophenyl)-4,5-dihydro-1,2-oxazol-5-yl]-N,1-dimethyl-N-(pyridin-3-yl)-1H-imidazole-5-carboxamide] | 1.39 | 1.63 | 100 | 95 | 100 | – | – | – | – | – | – | – | – | – | – | – | – | – | – | – | –
3 | CN(C(=O)c1cnc(C2CC(c3ccccc3)=NO2)n1C)c1cccnc1 (centres unmarked) [Example I-1-7] | 1.45 | 1.72 | 100 | 80 | 90 | 50 | 100 | 100 | 100 | 95 | 100 | 80 | 90 | 90 | 90 | – | – | – | – | – | –
4 | CCN(C(=O)c1cnc(C2CC(c3ccccc3)=NO2)n1C)c1cccnc1 (centres unmarked) [Example I-1-8] | – | – | – | – | – | – | – | – | – | – | – | – | – | – | – | 100 | 100 | 1.74 | 1.92 | 90 | –
5 | CN(C(=O)c1cnc(C2CC(C3CC3)=NO2)n1C)c1cccnc1 (centres unmarked) [Example I-1-4] | 0.85 | 1.15 | 100 | – | 90 | 90 | 100 | 100 | 100 | 98 | 100 | 95 | 100 | 90 | 90 | – | – | – | – | – | Emax at 4 g/ha ([10]; 4 g/ha (g of ai/ha)): 70%; Emax at 20 g/ha [10]: 100%
6 | CCC1=NOC(c2ncc(C(=O)N(C)c3cccnc3)n2C)C1 (centres unmarked) [Example I-1-2] | 0.71 | 1.09 | 100 | – | 90 | 98 | 98 | 100 | 100 | 100 | 100 | 98 | 100 | 70 | 90 | – | – | – | – | – | Emax at 20 g/ha [10]: 90%
7 | CN(C(=O)c1cnc(C2CC(c3ccncc3)=NO2)n1C)c1cccnc1 (centres unmarked) [Example I-1-28] | – | – | – | 80 | – | – | – | – | – | – | – | – | – | – | – | 100 | 90 | 0.54 | 1.11 | – | –
8 | CN(C(=O)c1cnc(C2CC(C(F)(F)F)=NO2)n1C)c1cccnc1 (centres unmarked) [Example I-1-32] | 1.45 | 1.59 | 100 | – | 90 | 90 | 97 | 100 | 100 | 20 | 96 | 90 | 99 | – | 90 | – | – | – | – | – | –
9 | CN(C(=O)c1cnc(C2CC(c3ccc([N+](=O)[O-])cc3)=NO2)n1C)c1cccnc1 (centres unmarked) [Example I-1-24] | – | – | – | – | – | – | – | – | – | – | – | – | – | – | – | 100 | 90 | – | – | 100 | logP[a] ([4]; pH 2.7): 1.64; logP[n] ([4]; pH 7.8): 1.84
10 | CN(C(=O)c1cnc(C2CC(c3ccc(C(F)(F)F)cc3)=NO2)n1C)c1cccnc1 (centres unmarked) [Example I-1-23] | – | – | – | – | – | – | – | – | – | – | – | – | – | – | – | 100 | 90 | 2.18 | 2.37 | 100 | –
